Measurements taken from patent publication US9493486B2, “Diazaspirocycloalkane and azaspirocycloalkane” (Hoffmann-La Roche Inc., priority 2012, dated 2016).

Molecular target: ATX (human His-tagged) (Homo sapiens (Human), UniProt Q13822)
Assay: Human ATX enzyme inhibition assay (fluorescence quenching, MR121 substrate)
Assay type: biochemical
Details: 30 nM ATX, 1 μM MR121 substrate, 30° C.
Description: Human ATX Enzyme Inhibition Assay
Assay working solutions were made as follows:

| SMILES | IC50 [nM] |
| --- | --- |
| CS(=O)(=O)c1ccc(COC(=O)N2CCC3(CC2)CN(C(=O)c2ccc4[nH]nnc4c2)C3)c(Cl)c1 [Example 12.28, 2-chloro-4-(methylsulfonyl)benzyl 2-(1H-benzo[d][1,2,3]triazole-5-carbonyl)-2,7-diazaspiro[3.5]nonane-7-carboxylate] | 138 |
| O=C(NC1CC2(C1)CN(C(=O)OCc1cccc(C(F)(F)F)c1)C2)c1ccc2[nH]nnc2c1 [Example 12.19, 6-[(1H-benzotriazole-5-carbonyl)-amino]-2-aza-spiro[3.3]heptane-2-carboxylic acid 3-trifluoromethyl-benzyl ester] | 2150 |
| Cc1cc(OC(F)(F)F)ccc1COC(=O)N1CCC2(CC1)CN(C(=O)C1CCc3[nH]nnc3C1)C2 (centres unmarked) [Example 12.37, [2-methyl-4-(trifluoromethoxy)phenyl]methyl 2-(4,5,6,7-tetrahydro-1H-benzotriazole-5-carbonyl)-2,7-diazaspiro[3.5]nonane-7-carboxylate] | 1 |
| O=C(OCc1cc(Cl)cc(C(F)(F)F)c1)N1CCC2(CC1)CN(C(=O)c1ccc3[nH]nnc3c1)C2 [Example 12.44, 3-chloro-5-(trifluoromethyl)benzyl 2-(1H-benzo[d][1,2,3]triazole-5-carbonyl)-2,7-diazaspiro[3.5]nonane-7-carboxylate] | 8 |
| CS(=O)(=O)c1cc(Cl)cc(COC(=O)N2CCC3(CC2)CN(C(=O)c2ccc4[nH]nnc4c2)C3)c1 [Example 1.09, 3-chloro-5-(methylsulfonyl)benzyl 2-(1H-benzo[d][1,2,3]triazole-5-carbonyl)-2,7-diazaspiro[3.5]nonane-7-carboxylate] | 50.5 |
| Nc1ccc(C(=O)N2CC3(CCN(C(=O)OCc4cc(Cl)cc(Cl)c4)CC3)C2)cc1O [Example 1.06, 3,5-dichlorobenzyl 2-(4-amino-3-hydroxybenzoyl)-2,7-diazaspiro[3.5]nonane-7-carboxylate] | 107 |
| N#Cc1cc(Cl)cc(COC(=O)N2CC3(CC(NC(=O)c4ccc5[nH]nnc5c4)C3)C2)c1 [Example 12.20, 6-[(1H-benzotriazole-5-carbonyl)-amino]-2-aza-spiro[3.3]heptane-2-carboxylic acid 3-chloro-5-cyano-benzyl ester] | 5640 |
| O=C(OCc1cc(Cl)cc(Cl)c1)N1CCC2(CC1)CN(Cc1ccc3[nH]c(=O)oc3c1)C2 [Example 4, 3,5-Dichlorobenzyl 2-((2-oxo-2,3-dihydro-benzo[d]oxazol-6-yl)methyl)-2,7-diaza-spiro[3.5]nonane-7-carboxylate] | 546 |
| O=C(NC1CC2(C1)CN(C(=O)OCc1cc(Cl)cc(OC(F)(F)F)c1)C2)c1ccc2[nH]nnc2c1 [Example 12.18, 6-[(1H-benzotriazole-5-carbonyl)-amino]-2-aza-spiro[3.3]heptane-2-carboxylic acid 3-chloro-5-trifluoromethoxy-benzyl ester] | 53.5 |
| O=C(NC1CC2(C1)CN(C(=O)CCCc1ccccc1)C2)c1ccc2[nH]nnc2c1 [Example 1.08, N-(2-(4-phenylbutanoyl)-2-azaspiro[3.3]heptan-6-yl)-1H-benzo[d][1,2,3]triazole-5-carboxamide] | 3350 |
| NS(=O)(=O)c1ccc(C(=O)N2CC3(CCN(C(=O)OCc4ccc(OC(F)(F)F)cc4)CC3)C2)cc1 [Example 1.22, 4-(trifluoromethoxy)benzyl 2-(4-sulfamoylbenzoyl)-2,7-diazaspiro[3.5]nonane-7-carboxylate] | 15 |
| O=C(CCCc1ccccc1)N1CC2(CC(NS(=O)(=O)c3ccc4[nH]c(=O)oc4c3)C2)C1 [Example 3.1, 2-oxo-2,3-dihydro-benzooxazole-6-sulfonic acid [2-(4-phenyl-butyryl)-2-aza-spiro[3.3]hept-6-yl]-amide] | 3560 |
| O=C(OCc1cncc(Br)c1)N1CCC2(CC1)CN(C(=O)c1ccc3[nH]nnc3c1)C2 [Example 12.09, (5-bromopyridin-3-yl)methyl 2-(1H-benzo[d][1,2,3]triazole-5-carbonyl)-2,7-diazaspiro[3.5]nonane-7-carboxylate] | 1640 |
| O=C(OCc1ccc(OC(F)(F)F)cc1)N1CCC2(CC1)CN(C(=O)N1CCc3[nH]nnc3C1)C2 [Example 13, 4-(Trifluoromethoxy)benzyl 2-(4,5,6,7-tetrahydro-1H-[1,2,3]triazolo[4,5-c]pyridine-5-carbonyl)-2,7-diazaspiro[3.5]nonane-7-carboxylate] | 3 |
| CS(=O)(=O)c1cc(Cl)cc(COC(=O)N2CCC3(CC2)CN(C(=O)c2ccc4[nH]c(=O)oc4c2)C3)c1 [Example 2.1, 3-chloro-5-(methylsulfonyl)benzyl 2-(2-oxo-2,3-dihydrobenzo[d]oxazole-6-carbonyl)-2,7-diazaspiro[3.5]nonane-7-carboxylate] | 38 |
| Nc1ccc(C(=O)N2CC3(CCN(C(=O)CCc4cc(Cl)cc(Cl)c4)CC3)C2)cc1O [Example 1.05, 1-(2-(4-amino-3-hydroxybenzoyl)-2,7-diazaspiro[3.5]nonan-7-yl)-3-(3,5-dichlorophenyl)propan-1-one] | 1040 |
| O=C(OCc1cnc(Cl)c(Cl)c1)N1CCC2(CC1)CN(C(=O)c1ccc3[nH]nnc3c1)C2 [Example 12.03, (5,6-dichloropyridin-3-yl)methyl 2-(1H-benzo[d][1,2,3]triazole-5-carbonyl)-2,7-diazaspiro[3.5]nonane-7-carboxylate] | 622 |
| O=C(OCc1ccc(OC(F)(F)F)cc1F)N1CCC2(CC1)CN(C(=O)N1CCc3[nH]nnc3C1)C2 [Example 13.01, 2-fluoro-4-(trifluoromethoxy)benzyl 2-(4,5,6,7-tetrahydro-1H-[1,2,3]triazolo[4,5-c]pyridine-5-carbonyl)-2,7-diazaspiro[3.5]nonane-7-carboxylate] | 1 |
| CC(C)c1cc(Cl)ccc1OCC(=O)N1CCC2(CC1)CN(C(=O)c1ccc3[nH]nnc3c1)C2 [Example 1.26, 1-(2-(1H-benzo[d][1,2,3]triazole-5-carbonyl)-2,7-diazaspiro[3.5]nonan-7-yl)-2-(4-chloro-2-isopropylphenoxy)ethanone] | 8 |
| O=C(NCc1cnn[nH]1)C1CC2(CCN(C(=O)/C=C/c3ccc(OC(F)(F)F)cc3)CC2)C1 [Example 6.8, (E)-N-((1H-1,2,3-triazol-5-yl)methyl)-7-(3-(4-(trifluoromethoxy)phenyl)acryloyl)-7-azaspiro[3.5]nonane-2-carboxamide] | 91 |
| O=C(OCc1cc(Cl)cc(Cl)c1)N1CCC2(CCN(C(=O)c3ccc4[nH]nnc4c3)CC2)C1 [Example 1.19, 3,5-dichlorobenzyl 8-(1H-benzo[d][1,2,3]triazole-5-carbonyl)-2,8-diazaspiro[4.5]decane-2-carboxylate] | 39.5 |
| O=C(OCc1ccc(OCC(F)(F)F)c(F)c1)N1CCC2(CC1)CN(C(=O)C1CCc3nn[nH]c3C1)C2 (centres unmarked) [Example 12.40, 3-fluoro-4-(2,2,2-trifluoroethoxy)benzyl 2-(4,5,6,7-tetrahydro-1H-benzo[d][1,2,3]triazole-6-carbonyl)-2,7-diazaspiro[3.5]nonane-7-carboxylate] | 2.5 |
| O=C(NC1CC2(C1)CN(C(=O)OCc1cc(Cl)cc(Cl)c1)C2)c1ccc2[nH]nnc2c1 [Example 1.13, 6-[(1H-benzotriazole-5-carbonyl)-amino]-2-aza-spiro[3.3]heptane-2-carboxylic acid 3,5-dichloro-benzyl ester] | 5430 |
